Data reported in patent US10736880B2, “Therapeutics for preterm labor management” (THE BOARD OF REGENTS OF THE UNIVERSITY OF TEXAS SYSTEM, priority 2015, dated 2020).
Where “and” joins values, the source holds several entries; their conditions need not be identical. Equal entries are not always repeated. Where a SMILES comes first, the peptide text is derived from it. Bridges are numbered along the chain shown (N, C = ends). [ ]: non-standard residue; d: D form. Orn = NCCC[C@H](N)C(=O)O; Mpa = O=C(O)CCS

Columns and labels:
[1] = Indomethacin levels in uterus, placenta and fetus after IND or LIP-IND (Example 1); type: in vivo, pregnant mouse; conditions: four hours following administration, mean ± sem; for concentration at 4 h: female, mouse
Prostaglandin E2 (PGE2) [2] = assay: PGE2 levels in uterine tissue after administration (Example 1); type: in vivo, pregnant mouse; conditions: four hours following administration
[3] = IND concentrations in maternal uterus and fetus by LC-MS/MS; type: in vivo, pregnant CD1 mice; conditions: female, CD1, mouse, intravenous, 1 mg/kg
Protocol: Biodistribution study in vivo. […] The in vivo doses were maintained across the study. After 4 h, pregnant mice were sacrificed by CO2 inhalation, followed by laparotomy to retrieve maternal liver, uteri, placentas and fetuses. The onset of action of LIP-IND-ORA is unknown when administered intravenously. […] Based on these prior studies, 4 h was chosen as the period of exposure.
Uterine and fetal tissues were homogenized in 1 mL of ice-cold methanol/water (7:3 v/v). Phenacetin (final concentration 20 ng/mL) was added to each sample before centrifugation at 15,000 rpm for 10 min. Supernatant was dried under nitrogen and reconstituted in 0.1% formic acid aqueous solution followed by protein precipitation with acetonitrile (1:2). Samples were centrifuged again, supernatant was transferred to vial and 10 μL was injected to Shimadzu triple quad 8040 MS connected to LC system. […] Method parameters were: LOD=3.9 ng/mL (accuracy 76%, S/N>3); LOQ=15.6 ng/mL (accuracy 85%; CV<10%; S/N>10) with correlation coefficient for linear regression R2=0.992.

[4] = test system: uterus isolated from pregnant mice; assay: Uterine contractility ex vivo, pregnant mouse; conditions: absence of oxytocin, 40 min incubation, IND 10-5 mol/L, n=6, mean±SEM
Source text: (§1) Uterine contractility ex vivo. An established ex vivo pregnant mouse or human models of uterine contractility was used to measure the ability of LIP-IND-ORA to inhibit uterine contractions. For mice, on GD19, timed-pregnant animals (N=6) underwent CO2 inhalation euthanasia, the maternal uteri were excised and placed into Krebs physiological solution. In the case of human tissue, strips from uterine biopsies obtained at cesarean section from non-laboring, term, healthy women were used. Uterine ring segments, 4 mm in width, were cut, and the fetuses and placentas were gently removed. […]
(§2) Changes in isometric tension were recorded with isometric force transducers (Harvard Apparatus, South Natik, Mass.) connected and stored to an online computer with data acquisition software (WINDAQ-200; DATAQ). The data was acquired and analyzed using Windaq data acquisition system (Dataq Instruments Inc, Akron, Ohio). Spontaneous contractile activity for each uterine ring was analyzed as an integral activity over 40 min before (basal activity) and after application of each study drug. […] OXY induced contractile response was expressed as an integral activity over 20 min of each OXY dose and the baseline uterine contractility54,55,56. […] Data was expressed as mean±SEM.

[5] = test system: strips from uterine biopsies obtained at cesarean section; assay: Human myometrial contractility study (organ bath); conditions: highest concentration of 10^−6
Source text: as §1, §2

prostaglandin E2 (PGE2) [6] = assay: PGE2 in uterine tissue incubated ex vivo, ELISA; design: species or system mouse; conditions: 40 min incubation, mean±SEM
Protocol: Another set of pregnant CD1 mice at GD 19 (n=5) was used to evaluate uterus PGE2 levels. […] PGE2 levels in each sample were then determined based on the instructions in the ELISA kit (ADI-901-001, Enzo Life Science, New York, USA). The concentration of PGE2 were expressed as pg/mL and reported as the mean±SEM.

[7] = test system: LPS-induced preterm birth; assay: LPS-induced preterm birth in vivo; design: species or system pregnant CD1 mice; conditions: IND 1 mg/kg daily tail vein
Protocol: Preterm birth in vivo. The established in vivo preterm pregnant mouse model was used to test the ability of LIP-IND-ORA to prevent preterm birth. LPS is a commonly used model to induce labor in murine models. On GD 16, timed-pregnant CD1 mice were administered lipopolysaccharide (LPS, Sigma, USA) (25 μg/kg) via intraperitoneal injection. […] Since the LIP-IND-ORA solution color was visibly pink and due to limited resources to create a placebo, the randomization was not blinded. Each day after the LPS administration, the preterm birth rate was determined as the number of pregnant mice spontaneously delivering prior to GD18. Animals were housed in single cages and were monitored by either direct observation or by video camera for the duration of the treatment period to confirm timing of delivery. The rate of preterm birth was expressed as percent and length of pregnancy after LPS administration was expressed in hours. Results were reported as median±sem.

preterm birth = conditions: prior experiments, 90% in control; cited from earlier work
[8] = ORA levels in maternal organs by LC-MS/MS; type: in vivo, pregnant mice; conditions: after LIP-IND-ORA
Source text: To enable faster clinical translation of the proposed approach, a clinically used^33 oxytocin receptor antagonist (ORA, or atosiban) was used as the targeting element. […] Thus, the goal of using ORA as a safe targeting moiety for pregnant women was successfully in delivering indomethacin to the uterus directly. The principles of nanomedicine have been applied to optimize tocolytics for the treatment of preterm labor, and the novel drug delivery system can provide a path for a new paradigm-shifting direction to advance the field of obstetrics.

Structure (SMILES) | concentration at 4 h ([1]; fetus) | concentration at 4 h ([1]; placenta) | concentration at 4 h ([1]; uterus) | Indomethacin level normalized per weight, fetus [1] | PGE2 levels in the uterus (Prostaglandin E2 (PGE2) [2]) | concentration at 4 h ([3]; fetus) | concentration at 4 h ([3]; uterus) | percent inhibition of uterine contractions [4] | percent uterine contractions [5] | PGE2 levels in the uterus exposed ex vivo (prostaglandin E2 (PGE2) [6]) | length of pregnancy after LPS administration [7] | rate of LPS-induced preterm birth ([7]; delivery prior to GD18) | rate of preterm birth (preterm birth) | ORA levels in the maternal organs [8]
COc1ccc2c(c1)c(CC(=O)O)c(C)n2C(=O)c1ccc(Cl)cc1 [IND, indomethacin] | 81.3 ± 24.7 ng/g | 650 ± 78.4 ng/g | 237 ± 21.6 ng/g | 81.3 ± 24.7 ng/g | 493.3 ± 89.0 pg/mL | 245 ± 61.7 ng/g | 965 ± 312 ng/g | 34.3±6.6% and 34.3±5.9% | 67.2±8.4% | 2,587.4±676.5 pg/mL | 30.0 ± 4.9 h | 54.5% | 30% | 
CCOc1ccc(C[C@H]2NC(=O)CCSSC[C@@H](C(=O)N3CCC[C@H]3C(=O)N[C@@H](CCCN)C(=O)NCC(N)=O)NC(=O)[C@H](CC(N)=O)NC(=O)[C@H]([C@@H](C)O)NC(=O)[C@H]([C@@H](C)CC)NC2=O)cc1 [ORA, atosiban] ([Mpa][dY](Et)ITNCP[Orn]G-NH2; disulfide 1-6) |  |  |  |  |  |  |  |  |  |  |  |  |  | not detectable
